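Cultured in 96-well plates, cells were exposed to test compound for 48 hours across five concentrations. GI50 is the concentration that inhibits growth by half. TGI: concentration producing complete growth inhibition.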
System: NCI-H23 lung
Test: growth of human tumour cells (NCI), 48 h

Row | SMILES | TGI [µM] | GI50 [µM]
1 | CCC(C)c1c(Cl)nc(Cl)nc1Cl (stereo not given) | 15.5 | 
2 | CC(C)c1nc(CN(C)C(=O)N[C@H](C(=O)N[C@@H](Cc2ccccc2)C[C@H](O)[C@H](Cc2ccccc2)NC(=O)OCc2cncs2)C(C)C)cs1 | > 100 | 42.6
3 | Oc1ccc(CN2CCC(N3CCCCC3)CC2)c2cccnc12 | > 100 | 6.05
4 | N#Cc1ccc(O)c(C2=NCC(c3cccc(Oc4ccccc4)c3)O2)c1 (stereo not given) | > 100 | 1.27
5 | CC1(C)OC2[C@@H](CNC(=O)NC(=O)NC(=O)CI)O[C@@H](n3cnc4c(NC(=O)Nc5ccccc5)ncnc43)[C@H]2O1 (stereo not given in full) | 16.7 | 7.46
6 | COc1cc(C2=C(c3ccccc3)COC2=O)cc(OC)c1OC | > 27.7 | 2.41
7 | COc1cc(C2NC(=O)c3ccccc3N2)ccc1OCCCCCOc1c(OC)cc(C2=NOC(c3cc(OC)c(OC)c(OC)c3)C2)cc1OC (stereo not given) | > 80 | 0.484
8 | O=C1Nc2c(C(F)(F)F)cccc2[C@]1(c1ccc(O)cc1)c1ccc(OC(F)(F)F)cc1 | 26.4 | 11
9 | CS(=O)(=O)c1ccc([C@H]2O[C@@H](CO)C[C@]2(O)c2ccc(S(C)(=O)=O)cc2)cc1 | > 100 | > 100
10 | CC(=O)OC[C@]1(C)C=C2C(=O)[C@](C)(O)C3(CC3)C(C)=C2[C@H]1O | 0.367 | 0.0633
11 | C[C@]12CC[C@H]3[C@@H](CC=C4C[C@@H](O)CC[C@@]43C)[C@@H]1CC[C@@H]2N(CCO)CCO | > 100 | 
12 | CC(C)(C)OC(=O)N1CCc2c(sc3ncnc(N/N=C/c4cccc5ccccc45)c23)C1 | > 100 | 5.25
13 | CC[C@@H]1CN(C)[C@H]2Cc3c([nH]c4ccccc34)C(=O)C[C@H]1C2C(=O)OC (stereo not given in full) | > 100 | 
14 | CCN(CC)c1ccc(/C=C/c2ccc3cc(C)ccc3[n+]2CC)cc1 | 12.5 | 0.0303
15 | Cc1ccc2c(c1)[n+]([O-])c(N)n[n+]2[O-] | > 100 | 
16 | COc1ccc(/C=C/c2nccc3ccccc23)cc1OC | > 10 | 

System: K-562 leukemia
Test: growth of human tumour cells (NCI), 48 h

Row | SMILES | TGI [µM] | GI50 [nM]
17 | CCC(C)c1c(Cl)nc(Cl)nc1Cl (stereo not given) | > 100 | 
18 | CC(C)c1nc(CN(C)C(=O)N[C@H](C(=O)N[C@@H](Cc2ccccc2)C[C@H](O)[C@H](Cc2ccccc2)NC(=O)OCc2cncs2)C(C)C)cs1 | 92.1 | 26600
19 | Oc1ccc(CN2CCC(N3CCCCC3)CC2)c2cccnc12 | > 100 | 2230
20 | N#Cc1ccc(O)c(C2=NCC(c3cccc(Oc4ccccc4)c3)O2)c1 (stereo not given) | > 100 | 394
21 | CC1(C)OC2[C@@H](CNC(=O)NC(=O)NC(=O)CI)O[C@@H](n3cnc4c(NC(=O)Nc5ccccc5)ncnc43)[C@H]2O1 (stereo not given in full) | 10.5 | 2300
22 | COc1cc(C2=C(c3ccccc3)COC2=O)cc(OC)c1OC | > 100 | 289
23 | COc1cc(C2NC(=O)c3ccccc3N2)ccc1OCCCCCOc1c(OC)cc(C2=NOC(c3cc(OC)c(OC)c(OC)c3)C2)cc1OC (stereo not given) | > 100 | 431
24 | O=C1Nc2c(C(F)(F)F)cccc2[C@]1(c1ccc(O)cc1)c1ccc(OC(F)(F)F)cc1 | > 100 | 8570
25 | CS(=O)(=O)c1ccc([C@H]2O[C@@H](CO)C[C@]2(O)c2ccc(S(C)(=O)=O)cc2)cc1 | > 100 | > 100000
26 | CC(=O)OC[C@]1(C)C=C2C(=O)[C@](C)(O)C3(CC3)C(C)=C2[C@H]1O | > 100 | 131
27 | C[C@]12CC[C@H]3[C@@H](CC=C4C[C@@H](O)CC[C@@]43C)[C@@H]1CC[C@@H]2N(CCO)CCO | > 100 | 
28 | CC(C)(C)OC(=O)N1CCc2c(sc3ncnc(N/N=C/c4cccc5ccccc45)c23)C1 | 62.4 | 2880
29 | CC[C@@H]1CN(C)[C@H]2Cc3c([nH]c4ccccc34)C(=O)C[C@H]1C2C(=O)OC (stereo not given in full) | > 100 | 
30 | CCN(CC)c1ccc(/C=C/c2ccc3cc(C)ccc3[n+]2CC)cc1 | 13.5 | 36
31 | Cc1ccc2c(c1)[n+]([O-])c(N)n[n+]2[O-] | > 100 | 
32 | COc1ccc(/C=C/c2nccc3ccccc23)cc1OC | > 10 | 

System: EKVX NSCLC
Test: growth of human tumour cells (NCI), 48 h

Row | SMILES | TGI [µM] | GI50 [µM]
33 | CCC(C)c1c(Cl)nc(Cl)nc1Cl (stereo not given) | 48.8 | 
34 | CC(C)c1nc(CN(C)C(=O)N[C@H](C(=O)N[C@@H](Cc2ccccc2)C[C@H](O)[C@H](Cc2ccccc2)NC(=O)OCc2cncs2)C(C)C)cs1 | > 100 | 4.11
35 | Oc1ccc(CN2CCC(N3CCCCC3)CC2)c2cccnc12 | > 100 | 32.4
36 | N#Cc1ccc(O)c(C2=NCC(c3cccc(Oc4ccccc4)c3)O2)c1 (stereo not given) | > 100 | 0.507
37 | CC1(C)OC2[C@@H](CNC(=O)NC(=O)NC(=O)CI)O[C@@H](n3cnc4c(NC(=O)Nc5ccccc5)ncnc43)[C@H]2O1 (stereo not given in full) | > 50 | 28.4
38 | COc1cc(C2=C(c3ccccc3)COC2=O)cc(OC)c1OC | > 100 | > 31.8
39 | COc1cc(C2NC(=O)c3ccccc3N2)ccc1OCCCCCOc1c(OC)cc(C2=NOC(c3cc(OC)c(OC)c(OC)c3)C2)cc1OC (stereo not given) | > 100 | 0.365
40 | O=C1Nc2c(C(F)(F)F)cccc2[C@]1(c1ccc(O)cc1)c1ccc(OC(F)(F)F)cc1 | 21.6 | 8.09
41 | CS(=O)(=O)c1ccc([C@H]2O[C@@H](CO)C[C@]2(O)c2ccc(S(C)(=O)=O)cc2)cc1 | > 100 | > 100
42 | CC(=O)OC[C@]1(C)C=C2C(=O)[C@](C)(O)C3(CC3)C(C)=C2[C@H]1O | 1.2 | 0.252
43 | C[C@]12CC[C@H]3[C@@H](CC=C4C[C@@H](O)CC[C@@]43C)[C@@H]1CC[C@@H]2N(CCO)CCO | 78.1 | 
44 | CC(C)(C)OC(=O)N1CCc2c(sc3ncnc(N/N=C/c4cccc5ccccc45)c23)C1 | > 100 | 3.64
45 | CC[C@@H]1CN(C)[C@H]2Cc3c([nH]c4ccccc34)C(=O)C[C@H]1C2C(=O)OC (stereo not given in full) | > 100 | 
46 | CCN(CC)c1ccc(/C=C/c2ccc3cc(C)ccc3[n+]2CC)cc1 | 13.2 | 0.0787
47 | Cc1ccc2c(c1)[n+]([O-])c(N)n[n+]2[O-] | > 100 | 
48 | COc1ccc(/C=C/c2nccc3ccccc23)cc1OC | > 10 | 

System: SK-MEL-28 melanoma
Test: growth of human tumour cells (NCI), 48 h

Row | SMILES | TGI [µM] | GI50 [µM]
49 | CCC(C)c1c(Cl)nc(Cl)nc1Cl (stereo not given) | 22.5 | 
50 | CC(C)c1nc(CN(C)C(=O)N[C@H](C(=O)N[C@@H](Cc2ccccc2)C[C@H](O)[C@H](Cc2ccccc2)NC(=O)OCc2cncs2)C(C)C)cs1 | 47.2 | 21.5
51 | Oc1ccc(CN2CCC(N3CCCCC3)CC2)c2cccnc12 | > 100 | 21.4
52 | N#Cc1ccc(O)c(C2=NCC(c3cccc(Oc4ccccc4)c3)O2)c1 (stereo not given) | > 100 | 2.09
53 | CC1(C)OC2[C@@H](CNC(=O)NC(=O)NC(=O)CI)O[C@@H](n3cnc4c(NC(=O)Nc5ccccc5)ncnc43)[C@H]2O1 (stereo not given in full) | 16 | 8.53
54 | COc1cc(C2=C(c3ccccc3)COC2=O)cc(OC)c1OC | > 100 | > 100
55 | COc1cc(C2NC(=O)c3ccccc3N2)ccc1OCCCCCOc1c(OC)cc(C2=NOC(c3cc(OC)c(OC)c(OC)c3)C2)cc1OC (stereo not given) | > 100 | 4.13
56 | O=C1Nc2c(C(F)(F)F)cccc2[C@]1(c1ccc(O)cc1)c1ccc(OC(F)(F)F)cc1 | 28.8 | 15
57 | CS(=O)(=O)c1ccc([C@H]2O[C@@H](CO)C[C@]2(O)c2ccc(S(C)(=O)=O)cc2)cc1 | > 100 | > 100
58 | CC(=O)OC[C@]1(C)C=C2C(=O)[C@](C)(O)C3(CC3)C(C)=C2[C@H]1O | 0.575 | 0.215
59 | C[C@]12CC[C@H]3[C@@H](CC=C4C[C@@H](O)CC[C@@]43C)[C@@H]1CC[C@@H]2N(CCO)CCO | > 100 | 
60 | CC(C)(C)OC(=O)N1CCc2c(sc3ncnc(N/N=C/c4cccc5ccccc45)c23)C1 | > 100 | 7.78
61 | CC[C@@H]1CN(C)[C@H]2Cc3c([nH]c4ccccc34)C(=O)C[C@H]1C2C(=O)OC (stereo not given in full) | > 100 | 
62 | CCN(CC)c1ccc(/C=C/c2ccc3cc(C)ccc3[n+]2CC)cc1 | 2.19 | 0.279
63 | Cc1ccc2c(c1)[n+]([O-])c(N)n[n+]2[O-] | > 100 | 
64 | COc1ccc(/C=C/c2nccc3ccccc23)cc1OC | > 10 | 

System: NCI-H522 lung
Test: growth of human tumour cells (NCI), 48 h

Row | SMILES | TGI [µM] | GI50 [nM]
65 | CCC(C)c1c(Cl)nc(Cl)nc1Cl (stereo not given) | 2.51 | 
66 | CC(C)c1nc(CN(C)C(=O)N[C@H](C(=O)N[C@@H](Cc2ccccc2)C[C@H](O)[C@H](Cc2ccccc2)NC(=O)OCc2cncs2)C(C)C)cs1 | > 81 | 28700
67 | Oc1ccc(CN2CCC(N3CCCCC3)CC2)c2cccnc12 | 43.9 | 3430
68 | N#Cc1ccc(O)c(C2=NCC(c3cccc(Oc4ccccc4)c3)O2)c1 (stereo not given) | 12.3 | 1170
69 | CC1(C)OC2[C@@H](CNC(=O)NC(=O)NC(=O)CI)O[C@@H](n3cnc4c(NC(=O)Nc5ccccc5)ncnc43)[C@H]2O1 (stereo not given in full) | 1.5 | 742
70 | COc1cc(C2=C(c3ccccc3)COC2=O)cc(OC)c1OC | > 57.4 | 2480
71 | COc1cc(C2NC(=O)c3ccccc3N2)ccc1OCCCCCOc1c(OC)cc(C2=NOC(c3cc(OC)c(OC)c(OC)c3)C2)cc1OC (stereo not given) | > 56.2 | 17100
72 | O=C1Nc2c(C(F)(F)F)cccc2[C@]1(c1ccc(O)cc1)c1ccc(OC(F)(F)F)cc1 | 28.5 | 12900
73 | CS(=O)(=O)c1ccc([C@H]2O[C@@H](CO)C[C@]2(O)c2ccc(S(C)(=O)=O)cc2)cc1 | > 100 | > 100000
74 | CC(=O)OC[C@]1(C)C=C2C(=O)[C@](C)(O)C3(CC3)C(C)=C2[C@H]1O | 0.39 | 79.8
75 | C[C@]12CC[C@H]3[C@@H](CC=C4C[C@@H](O)CC[C@@]43C)[C@@H]1CC[C@@H]2N(CCO)CCO | > 100 | 
76 | CC(C)(C)OC(=O)N1CCc2c(sc3ncnc(N/N=C/c4cccc5ccccc45)c23)C1 | 7.21 | 2260
77 | CC[C@@H]1CN(C)[C@H]2Cc3c([nH]c4ccccc34)C(=O)C[C@H]1C2C(=O)OC (stereo not given in full) | > 100 | 
78 | CCN(CC)c1ccc(/C=C/c2ccc3cc(C)ccc3[n+]2CC)cc1 | 2.55 | 83.5
79 | Cc1ccc2c(c1)[n+]([O-])c(N)n[n+]2[O-] | > 100 | 
80 | COc1ccc(/C=C/c2nccc3ccccc23)cc1OC | > 10 | 

From PubChem BioAssay (NCI)
